In patent US9090600B2, “Fungicidal 4-substituted-3-{phenyl[(heterocyclylmethoxy)imino]methyl}-1,2,4-oxadizol-5(4H)-one derivatives” (BAYER INTELLECTUAL PROPERTY GMBH, priority 2011, dated 2015):
Like-named read-outs stand apart in the source and are kept apart here. Marks after values point to notes of the source that are not given here.

Experiments:
[1] = tested on: Botrytis cinerea; experiment: In vivo test on Botrytis cinerea (grey mould); settings: gherkin plants, spray, 500 ppm, grading 4/5 days after contamination
Procedure: The active ingredients tested are prepared by homogenization in a mixture of acetone/Tween/DMSO, then diluted with water to obtain the desired active material
Gherkin plants (Vert petit de Paris variety), sown on a 50/50 peat soil-pozzolana substrate in starter cups and grown at 18-20° C., are treated at the cotyledon Z11 stage by spraying with the active ingredient prepared as described above.
Plants, used as controls, are treated with an aqueous solution not containing the active material. After 24 hours, the plants are contaminated by spraying them with an aqueous suspension of cryopreserved Botrytis cinerea spores (50.000 spores per ml) on upper surface of the leaves. The spores are suspended in a nutrient solution composed of: • 10 g/L of PDB; • 50 g/L of D-fructose; • 2 g/L of NH4NO3; • 1 g/L of KH2PO4.
The contaminated cucumber plants are settled for 4/5 days in a climatic room at 17° C. (day/night) and at 80% relative humidity.
Grading is carried out 4/5 days after the contamination, in comparison with the control plants.
(§1) Under these conditions, good (at least 70%) or total protection is observed at a dose of 500 ppm with the following compounds: […]

[2] = pH 2.7
[3] = tested on: Phytophthora infestans; type: in vivo; settings: tomato plants, spray, 500 ppm, grading 5 days after contamination
[4] = tested on: Puccinia recondita; experiment: In vivo test on Puccinia recondita (brown rust); settings: wheat plants, spray, 500 ppm, grading 10 days after contamination
How it was run: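 Wheat (Scipion) at the 1-leaf stage sprayed with compound suspension (acetone/tween/DMSO diluted in water), then inoculated 24 h later with Puccinia recondita spores at 100.000 spores per ml. Plants were held 24 h at 20 °C/100% RH, then 10 days at 20 °C/70% RH; protection graded 10 days post-inoculation versus untreated controls.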

[5] = tested on: Sphaerotheca fuliginea; experiment: In vivo test on Sphaerotheca fuliginea (cucurbits powdery mildew); settings: gherkin plants, spray, 500 ppm, grading 12 days after contamination
Procedure: (§2) The active ingredients tested are prepared by homogenization in a mixture of acetone/tween/DMSO, then diluted with water to obtain the desired active material.
Gherkin plants (Vert petit de Paris variety) in starter cups, sown on a 50/50 peat soil-pozzolana substrate and grown at 20° C./23° C., are treated at the cotyledon Z10 stage by spraying with the aqueous suspension described above. Plants, used as controls, are treated with an aqueous solution not containing the active material.
After 24 hours, the plants are contaminated by spraying them with an aqueous suspension of Sphaerotheca fuliginea spores (100.000 spores per ml). The spores are collected from a contaminated plants. The contaminated gherkin plants are incubated at about 20° C./25° C. and at 60/70% relative humidity.
Grading (% of efficacy) is carried out 12 days after the contamination, in comparison with the control plants.
as §1

[6] = tested on: Plasmopara viticola; experiment: Plasmopara test (grapevines)/preventive; type: in vivo; settings: preventive spray, 10 ppm of active ingredient, evaluated 6 days after inoculation
How it was run: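 Young grapevines sprayed preventively with compound formulated in acetone/dimethylacetamide with emulsifier, diluted in water, then inoculated with P. viticola spores after drying. Held 1 day at ~20 °C/100% RH, 4 days in greenhouse at ~21 °C/~90% RH, then misted for 1 day. Efficacy scored 6 days post-inoculation (0% = untreated control, 100% = no disease).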

[7] = tested on: Pythium irregulare; experiment: Pythium test (corn)/seed treatment; type: in vivo; settings: 10 g/dt seed of active ingredient, emerged seedlings after 7 days at 10° C. then 14 days at 20° C.
Procedure: (§3) The test is performed under greenhouse conditions.
Corn seeds, treated with the active compound or compound combinations, solved in N-methyl-2-pyrrolidon and diluted with water to the desired dosages, were sown in 6*6 cm pots containing 4 cm of a 1:1 mix of steamed field soil and sand.
Perlite was incubated with mycelium fragments of Pythium irregulare. 5 ml of infected perlite was scattered between the treated cotton seeds. Seeds were than covered by the 1:1 mix of steamed field soil and sand. Pots were incubated in the greenhouse 7 days at 10° C. and 80% relative humidity and then 14 days at 20° C. and 80% relative humidity.
(§4) Assessment consisted of counting of emerged seedlings. 0% means an efficacy which corresponds to that of the control, while an efficacy of 100% means that all seedlings have emerged.

[8] = tested on: Pythium ultimum; experiment: Pythium test (cotton)/seed treatment; type: in vivo; settings: 10 g/dt seed of active ingredient, emerged seedlings after 7 days
Procedure: as §3
Cotton seeds, treated with the active compound or compound combinations, solved in N-methyl-2-pyrrolidon and diluted with water to the desired dosages, were sown in 6*6 cm pots containing 4 cm of a 1:1 mix of steamed field soil and sand.
Perlite was incubated with mycelium fragments of Pythium ultimum. 1 ml of infected perlite was scattered between the treated cotton seeds. Seeds were then covered by light expanded clay aggregate. Pots were incubated in the greenhouse 7 days at 20° C. and 80% relative humidity.
as §4

[9] = tested on: Phytophthora infestans; type: in vivo; settings: tomato, preventive spray, 100 ppm of active ingredient, evaluated 7 days after inoculation
[10] = tested on: Pythium aphanidermatum; experiment: Pythium test (cucumber)/seed treatment; type: in vivo; settings: 10 g/dt seed of active ingredient, emerged seedlings after 7 days
Procedure: as §3
Cucumber seeds, treated with the active compound or compound combinations, solved in N-methyl-2-pyrrolidon and diluted with water to the desired dosages, were sown in 6*6 cm pots containing 4 cm of a 1:1 mix of steamed field soil and sand.
Perlite was incubated with mycelium fragments of Pythium aphanidermatum. 5 ml of infected perlite was scattered between the treated […] seeds. Seeds were then covered by the 1:1 mix of steamed field soil and sand. Pots were incubated in the greenhouse 7 days at 24° C. and 80% relative humidity. Assessment consisted of counting of emerged seedlings. 0% means an efficacy which corresponds to that of the control, while an efficacy of 100% means that all seedlings have emerged.

[11] = tested on: Alternaria brassicae; experiment: In vivo test on Alternaria brassicae (leaf spot of crucifers); settings: radish plants, spray, 500 ppm, grading 6 to 7 days after contamination
Procedure: as §2
Radish plants (Pernot variety), sown on a 50/50 peat soil-pozzolana substrate in starter cups and grown at 18-20° C., are treated at the cotyledon stage by spraying with the active ingredient prepared as described above.
Plants, used as controls, are treated with the mixture of acetone/tween/water not containing the active material.
After 24 hours, the plants are contaminated by spraying them with an aqueous suspension of Alternaria brassicae spores (40,000 spores per cm^3). The spores are collected from a 12 to 13 days-old culture.
The contaminated radish plants are incubated for 6-7 days at about 18° C., under a humid atmosphere.
Grading is carried out 6 to 7 days after the contamination, in comparison with the control plants.
Under these conditions, good protection (at least 70%) is observed at a dose of 500 ppm with the following compounds: […]

[12] = tested on: Mycosphaerella graminicola; experiment: In vivo test on Mycosphaerella graminicola (wheat leaf spot); settings: wheat plants, spray, 500 ppm, grading 21 to 28 days after contamination
How it was run: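 Scipion wheat at 1-leaf stage was sprayed with compound suspension (acetone/tween/DMSO diluted in water), then inoculated 24 h later with spores (500.000/ml). Plants were held 72 h at 18° C and 100% RH, then 21 to 28 days at 90% RH. Efficacy was graded as % versus untreated controls.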

[13] = tested on: Uromyces appendiculatus; experiment: In vivo test on Uromyces appendiculatus (brown rust of bean); settings: Saxa variety plants, spray, 500 ppm, grading 10 days after contamination
Procedure: as §2
Wheat plants (Saxa variety) sown on 50/50 peat soil-pozzolana substrate in starter cups and grown at 24° C., are treated at the 2-leaf stage (9 cm tall) by spraying with the aqueous suspension described above.
(§5) Plants, used as controls, are treated with an aqueous solution not containing the active material.
After 24 hours, the plants are contaminated by spraying the leaves with an aqueous suspension of Uromyces appendiculatus spores (150.000 spores per ml). The spores are collected from a 10-day-old contaminated […] and are suspended in water containing 2.5 ml/l of tween 80 10%. The contaminated […] are incubated for 24 hours at 20° C. and at 100% relative humidity, and then for 10 days at 20° C. and at 70% relative humidity. Grading is carried out 10 days after the contamination, in comparison with the control plants.
as §1

[14] = tested on: Pyrenophora teres; experiment: In vivo test on Pyrenophora teres (barley net blotch); settings: barley plants, spray, 500 ppm, grading 12 days after contamination
Procedure: The active ingredients tested are prepared by homogenization in a mixture of acetone/Tween/DMSO, then diluted with water to obtain the desired active material concentration.
Barley plants (Plaisant variety), sown on a 50/50 peat soil-pozzolana substrate in starter cups and grown at 22° C. (12 h)/20° C. (12 h), are treated at the 1-leaf stage (10 cm tall) by spraying with the active ingredient prepared as described above.
as §5
After 24 hours, the plants are contaminated by spraying them with an aqueous suspension of Pyrenophora teres spores (12.000 spores per ml). The spores are collected from a 12-day-old culture.
The contaminated barley plants are incubated for 24 hours at about 20° C. and at 100% relative humidity, and then for 12 days at 80% relative humidity.
Grading is carried out 12 days after the contamination, in comparison with the control plants.
Under these conditions, good (at least 70%) is observed at a dose of 500 ppm with the following compounds: […]

[15] = Measurement of log P values by HPLC on reversed phase columns (EEC directive 79/831 Annex V.A8); settings: pH 2.7

| Compound | Eff. % [1] | LogP [2] | Eff. % [3] | Eff. % [4] | Eff. % [5] | Eff. % [6] | Eff. % [7] | Eff. % [8] | Eff. % [9] | Eff. % [10] | Eff. % [11] | Eff. % [12] | Eff. % [13] | Eff. % [14] | chromatographic logP [15] |
| --- | --- | --- | --- | --- | --- | --- | --- | --- | --- | --- | --- | --- | --- | --- | --- |
| CCCCCC(=O)Nc1cccc(CO/N=C(/c2cccc(OC)c2)c2noc(=O)n2C)n1 [Example 211] | 84% | 3.92 [a] | 91% | 71% | 72% |  |  |  |  |  |  |  |  |  |  |
| CCC(CC)C(=O)Nc1cccc(CO/N=C(/c2ccccc2)c2noc(=O)n2C)n1 [Example 124] |  | 3.71 [a] | 99% |  | 80% |  |  |  |  |  |  |  |  |  |  |
| Cn1c(/C(=N\OCc2cccc(NC(=O)OCc3ccccc3)n2)c2ccccc2)noc1=O [Example 168] |  | 3.99 [a] | 99% |  |  | 100% | 100% | 70% | 92% | 92% |  |  |  |  |  |
| CCn1c(/C(=N\OCc2cccc(N)n2)c2ccccc2)noc1=O [Example 209] |  | 1.42 [a] | 84% | 88% | 75% |  |  |  |  |  | 70% |  |  |  |  |
| COc1ccc(OC)c(CC(=O)Nc2cccc(CO/N=C(/c3ccccc3)c3noc(=O)n3C)n2)c1 [Example 190] |  | 3.6 [a] | 100% | 94% | 98% |  |  |  |  |  |  | 100% | 83% |  |  |
| C#CCOC(=O)Nc1cccc(CO/N=C(/c2ccccc2)c2noc(=O)n2C)n1 [Example 342] |  | 3.13 [a] | 99% |  |  | 100% | 100% | 100% | 92% | 100% |  |  |  |  |  |
| COc1cccc(C(=O)Nc2nc(CO/N=C(/c3ccccc3)c3noc(=O)n3C)cs2)c1 [Example 212] |  | 3.58 [a] | 73% | 89% | 100% |  |  |  |  |  | 70% | 100% | 100% | 97% |  |
| CCCCCOC(=O)Nc1cccc(CO/N=C(/c2ccccc2)c2noc(=O)n2C)n1 [Example 2] |  | 4.44 [a] |  |  |  | 97% | 100% | 89% | 100% | 98% |  |  |  |  |  |
| CCCCC(=O)Nc1cccc(CO/N=C(/c2ccccc2)c2noc(=O)n2C)n1 [Example 15] |  | 3.51 [a] | 99% |  |  | 97% | 100% | 96% | 98% | 98% |  |  |  |  |  |
| C#CCC(C)OC(=O)Nc1cccc(CO/N=C(/c2ccccc2)c2noc(=O)n2C)n1 (centres unmarked) [Example 226] |  | 3.57 [a] | 100% |  |  | 100% | 90% | 93% | 92% | 99% |  |  |  |  |  |
| CCN(CC)c1cccc(CO/N=C(/c2ccccc2)c2noc(=O)n2C)n1 [Example 197, 3-[(Z)-({[6-(diethylamino)pyridin-2-yl]methoxy}imino)(phenyl)methyl]-4-methyl-1,2,4-oxadiazol-5(4H)-one] |  |  | 100% | 94% | 80% |  |  |  |  |  |  | 96% | 89% |  | 2.63 |
| Cn1c(/C(=N\OCc2cccc(N)n2)c2cccc(F)c2)noc1=O [Example 83] | 73% | 1.34 [a] | 100% | 89% | 85% |  |  |  |  |  |  | 93% | 75% |  |  |
| C#CCCOC(=O)Nc1cccc(CO/N=C(/c2ccccc2)c2noc(=O)n2C)n1 [Example 3] |  | 3.27 [a] |  |  |  | 100% | 100% | 93% | 98% | 95% |  |  |  |  |  |
